In paper PMC12390925, “Metabolomics analysis of SNAT2-deficient cells: Implications for the discovery of selective small-molecule inhibitors of an amino acid transporter” (The Journal of Biological Chemistry, 2025):
Blank lines part the entries; values can stand above or below the molecule they belong to.

Tests used:
[1] = molecular target: T1, sodium-coupled neutral amino acid transporter 2 (SNAT2/SLC38A2) (Homo sapiens, UniProt Q96QD8); test: inhibition of SNAT2-dependent MeAIB uptake in cells (GC-MS); format: cell-based
T1 construct: dox-inducible sgRNA-resistant human SLC38A2 cDNA in Slc38a2-KO mouse HY15549 cells
T1 sequence (Q96QD8 1-506): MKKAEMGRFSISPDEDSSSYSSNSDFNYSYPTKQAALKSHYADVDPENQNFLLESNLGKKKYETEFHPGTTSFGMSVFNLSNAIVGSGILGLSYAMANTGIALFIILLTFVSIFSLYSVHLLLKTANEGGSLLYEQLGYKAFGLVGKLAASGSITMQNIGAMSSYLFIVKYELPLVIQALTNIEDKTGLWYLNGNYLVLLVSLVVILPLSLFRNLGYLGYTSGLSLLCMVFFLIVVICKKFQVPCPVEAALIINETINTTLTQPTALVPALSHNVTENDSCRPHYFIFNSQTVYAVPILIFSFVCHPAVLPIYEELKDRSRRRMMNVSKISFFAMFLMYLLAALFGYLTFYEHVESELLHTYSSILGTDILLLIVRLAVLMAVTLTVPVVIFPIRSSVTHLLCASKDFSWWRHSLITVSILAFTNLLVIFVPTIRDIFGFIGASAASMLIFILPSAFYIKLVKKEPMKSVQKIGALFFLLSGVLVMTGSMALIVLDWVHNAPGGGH

[2] = molecular target: T1, sodium-coupled neutral amino acid transporter 2 (SNAT2/SLC38A2); test: GC-MS cell uptake assay, SNAT2-expressing vs SNAT2-KO cells (KM); format: cell-based
[3] = substrate: CNC(C)(C)C(=O)O; test: GC-MS cell uptake assay, SNAT1-overexpressing vs empty vector cells (KM); format: cell-based, Homo sapiens

Molecule: C[C@H](N)C(=O)O [L-alanine]
- IC50 [1]: 1900 µM

- Km [2]: ~300 µM
Molecule: CNC(C)(C)C(=O)O [MeAIB]

B1: SNAT1 (Homo sapiens) (protein)
chain: MMHFKSGLELTELQNMTVPEDDNISNDSNDFTEVENGQINSKFISDRESRRSLTNSHLEKKKCDEYIPGTTSLGMSVFNLSNAIMGSGILGLAFALANTGILLFLVLLTSVTLLSIYSINLLLICSKETGCMVYEKLGEQVFGTTGKFVIFGATSLQNTGAMLSYLFIVKNELPSAIKFLMGKEETFSAWYVDGRVLVVIVTFGIILPLCLLKNLGYLGYTSGFSLSCMVFFLIVVIYKKFQIPCIVPELNSTISANSTNADTCTPKYVTFNSKTVYALPTIAFAFVCHPSVLPIYSELKDRSQKKMQMVSNISFFAMFVMYFLTAIFGYLTFYDNVQSDLLHKYQSKDDILILTVRLAVIVAVILTVPVLFFTVRSSLFELAKKTKFNLCRHTVVTCILLVVINLLVIFIPSMKDIFGVVGVTSANMLIFILPSSLYLKITDQDGDKGTQRIWAALFLGLGVLFSLVSIPLVIYDWACSSSSDEGH
notes: CMV-driven human SLC38A1 cDNA stably expressed in HY15549 iSNAT2 cells
- Km [3]: 2900 µM
